The values below come from patent US20040171598A1, “Use of steroids to treat persons suffering from ocular disorders” (priority 2003, published 2004).

Data set [1] concerns retinal neovascularization. In words: Rat pup model of retinopathy of prematurity. Format: in vivo. How it is done:
Anecortave acetate was tested for its angiostatic efficacy in a rat pup model of retinopathy of prematurity (Penn, at al., Investigative Ophthalmology & Visual Science, “The Effect of an Angiostatic Steroid on Neovascularization in a Rat Model of Retinopathy of Prematurity,” Vol. 42(1):283-290, January 2001). Newborn rat pups were placed in an atmosphere of varying oxygen content. The rats received a single intravitreal injection of vehicle or anecortave acetate (500 μg) upon return to room air (day 14) or 2 days later (day 16). There was significant retinal neovascularization in the rats that receive vehicle injections.

For data set [2], the system named is IOP. Kind of data set: Dexamethasone acetate induced IOP elevation in rabbits. It counts as in vivo, rabbit. The conditions noted are these: for IOP: rabbits with weekly subTenon's dexamethasone acetate 1 mg/kg, versus vehicle. The protocol: Three groups of rabbits received weekly subTenon's injections of dexamethasone acetate (1 mg/kg) for 4 weeks. After two weeks, the IOPs of all three groups measured approximately 5 mm Hg. The rabbits were then treated with vehicle, 0.1% anecortave acetate, a 1% anecortave acetate by topical ocular dosing three times a day for the remaining 2 weeks. The IOP continued to increase in the vehicle treated group.

As to `CC(=O)OCC(=O)[C@@]1(O)CC[C@H]2[C@@H]3CCC4=CC(=O)CC[C@]4(C)C3=CC[C@@]21C` [anecortave acetate, 4,9(11)-pregnadien-17α,21-diol-3,20dione-21-acetate], the figures for the “inhibition of retinal neovascularization” value in data set [1] (single intravitreal injection 500 μg 2 days after return to room air (day 16)) and in data set [1] (single intravitreal injection 500 μg upon return to room air (day 14)) were 50% and 66%, respectively. For the same molecule, the IOP entry in data set [2] (0.1% anecortave acetate topical ocular three times a day for 2 weeks) and in data set [2] (1% anecortave acetate topical ocular three times a day for 2 weeks) was “significantly lowered” each time.
For the molecule `CC(=O)OCC(=O)[C@@]1(O)[C@H](C)C[C@H]2[C@@H]3CCC4=CC(=O)C=C[C@]4(C)[C@@]3(F)[C@@H](O)C[C@@]21C` [dexamethasone acetate], the “IOP after two weeks of dexamethasone acetate” value in data set [2] (rabbits, weekly subTenon's injections 1 mg/kg, all three groups, before anecortave acetate or vehicle dosing) was “approximately 5 mm Hg”.
